These results are taken from US20080306275A1, “NOVEL HETEROARYL DERIVATIVE” (Danippon Sumitomo Pharma Co., Ltd., priority 2003, published 2008).

Structures can show the parent of a compound that is named as a salt.

One assay has as its target T1, human PPARα (Homo sapiens, UniProt Q07869).
T1 construct: human PPARα (including amino acid residues 167-468); expressed in transfected cells; host or cells: COS-1
T1 sequence (Q07869 167-468): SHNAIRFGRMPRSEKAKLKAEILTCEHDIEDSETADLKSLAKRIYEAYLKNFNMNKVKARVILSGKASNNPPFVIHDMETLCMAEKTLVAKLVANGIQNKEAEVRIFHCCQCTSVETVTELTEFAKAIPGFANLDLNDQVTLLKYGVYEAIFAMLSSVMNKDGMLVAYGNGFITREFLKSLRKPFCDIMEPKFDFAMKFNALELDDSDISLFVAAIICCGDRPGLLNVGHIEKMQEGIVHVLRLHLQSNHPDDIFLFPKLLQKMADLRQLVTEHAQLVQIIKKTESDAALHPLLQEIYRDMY
In words: GAL4-PPARα luciferase reporter assay in COS-1 cells. Particulars: relative luciferase activity, vehicle (DMSO) control regarded as 1, 24 hours. The class given is cell-based. From the text: (§1) By inserting a gene fragment encoding the ligand binding domain of human PPARα (including amino acid residues 167-468) or a gene fragment encoding the ligand binding domain of human PPARγ (including amino acids residue 204-505) into a multicloning site of expressing vector pM containing DNA binding domain of yeast GAL4 protein (Clonetech), a vector plasmid expressing a fused protein of GAL4 protein DNA binding domain and human PPARα or γ ligand binding domain.
(§2) As a reporter plasmid, pGL3-Basic Vector containing firefly luciferase gene (Promega Corporation) was used wherein Gal4-responsive sequence UAS and rabbit β-globin promoter were inserted.
(§3) For the modification of genetic transformation efficiency, a plasmid containing lacZ gene, pβgal control (Clonetech), was used.
(§4) COS-1 cells were cultured in the phenol red free Dulbecco's Modified Eagles Medium (DMEM) (Gibco) supplemented with 5% activated carbon/dextran stripped fetal bovine serum at 37° C. with 5% carbon dioxide. The COS-1 cells were plated at a concentration of 5×10^4 cells/well into a 24-well plate, and the plate was incubated overnight. The medium was replaced with a fresh medium supplemented without 5% activated carbon/dextran treated fetal bovine serum. Further, the cells were transfected using Lipofectamine plus reagent (Gibco) with plasmid GAL4-PPARα- or γ-expressing plasmid (5 ng), the reporter plasmid (50 ng), pβgal control (350 ng) per well. After incubation for 4 hours, the medium was changed with a fresh medium supplemented with 5% activated carbon/dextran treated fetal bovine serum. Then, the compound of the present invention was added thereto in such an amount that the final concentration thereof is 1 μM or 10 μM. After the cultivation for 24 hours, the cells were lysed with a solution for cell lysis accompanied to the Luciferase Assay System (Promega Corporation). The luciferase activity therein was measured by a luminometer using the reagent for measuring luciferase which was also accompanied to said System. The β-galactosidase activity was measured using a β-galactosidase enzyme assay system (Promega Corporation) to correct the generic transfection efficiency.
(§5) The PPARα- or γ-agonistic activity was expressed as a relative activity where the luciferase activity in the well to which the vehicle (DMSO) was added as control was regarded as 1.
In general terms: A reporter such as luciferase makes a cellular process visible.

Another assay deals with T2, human PPARγ (Homo sapiens, UniProt P37231).
T2 construct: human PPARγ (including amino acids residue 204-505); expressed in transfected cells; host or cells: COS-1
T2 sequence (P37231 204-505): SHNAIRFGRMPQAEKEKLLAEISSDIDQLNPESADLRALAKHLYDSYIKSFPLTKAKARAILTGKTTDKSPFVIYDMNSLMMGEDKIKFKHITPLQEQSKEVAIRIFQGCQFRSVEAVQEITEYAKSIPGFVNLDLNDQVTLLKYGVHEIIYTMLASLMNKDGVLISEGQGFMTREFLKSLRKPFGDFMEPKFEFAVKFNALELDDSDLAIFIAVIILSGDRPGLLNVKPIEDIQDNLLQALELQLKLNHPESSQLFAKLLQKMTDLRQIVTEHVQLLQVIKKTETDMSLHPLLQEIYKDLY
The experiment in a line: GAL4-PPARγ luciferase reporter assay in COS-1 cells. It counts as cell-based. The settings on record: relative luciferase activity, vehicle (DMSO) control regarded as 1, 24 hours.
Excerpt: as §1, §2, §3, §4, §5

The test system of the next assay is male db/db mice. The experiment in a line: Hypoglycemic activity in db/db mice. The class given is in vivo. The settings on record: 30 mg/kg orally once a day for 2 weeks, blood glucose level on the last day. As to the method: The test compounds as disclosed in Examples were dissolved or suspended in a 0.5% carbomethyl cellulose solution, and orally administered to male db/db mice (7 to 8 weeks old) at a final dose of 30 mg/kg once a day for 2 weeks. On the last day, the blood was taken at the tail vein, and immediately thereafter, perchloric acid was added for removing proteins, and the blood glucose level was measured by Glucose CII Test Wako (Wako Pure Industries, Ltd.).
In addition, the hypoglycemic activity was calculated by the following equation.

Take `Cc1ccc(C(=O)c2cccn2C/C=C/c2cccc(COC(C)(C)C(=O)O)c2)cc1` [Example 1B, 2-Methyl-2-[(3-{(1E)-3-[2-(4-methylbenzoyl)-1H-pyrrol-1-yl]prop-1-en-1-yl}-benzyl)oxy]propionic acid]: the “PPARα-agonistic activity (10 μM)” value at human PPARα was 8.0. Besides, the “PPARγ-agonistic activity (10 μM)” value on human PPARγ is reported as 4.7. Besides, the “Hypoglycemic Activity (%)” value with male db/db mice was found to be 21.2%.

`Cc1ccc(C(=O)c2cccn2C/C=C/c2cccc(COC(C(=O)O)c3ccccc3)c2)cc1` (stereo not shown) [Example 2B, [(3-{(1E)-3-[2-(4-Methylbenzoyl)-1H-pyrrol-1-yl]prop-1-en-1-yl}benzyl)oxy]-(phenyl)acetic acid]: the “PPARα-agonistic activity (10 μM)” value at human PPARα worked out at 7.8. At human PPARγ, the “PPARγ-agonistic activity (10 μM)” value worked out at 5.6.

Take `Cc1ccc(C(=O)c2cccn2C/C=C/c2ccc(COC(C)(C)C(=O)O)cc2)cc1` [Example 3B, 2-Methyl-2-[(4-{(1E)-3-[2-(4-methylbenzoyl)-1H-pyrrol-1-yl]prop-1-en-1-yl}-benzyl)oxy]propionic acid]: at human PPARα, the “PPARα-agonistic activity (10 μM)” value is 12.6. In addition, on human PPARγ, the “PPARγ-agonistic activity (10 μM)” value is reported as 7.5. Besides, in the assay on male db/db mice, the “Hypoglycemic Activity (%)” value is 17.8%.

For the compound `Cc1ccc(C(=O)c2cccn2C/C=C/c2cccc(COCC(=O)O)c2)cc1` [Example 4, [(3-{(1E)-3-[2-(4-Methylbenzoyl)-1H-pyrrol-1-yl]prop-1-en-1-yl}benzyl)oxy]acetic acid], on human PPARα, the “PPARα-agonistic activity (10 μM)” value is 12.6. Also, the “PPARγ-agonistic activity (10 μM)” value on human PPARγ was 3.4.

For the compound `Cc1ccc(C(=O)c2cccn2C/C=C/c2cccc(CO[C@H](C)C(=O)O)c2)cc1` [Example 5B, (2R)-2-[(3-{(1E)-3-[2-(4-Methylbenzoyl)-1H-pyrrol-1-yl]prop-1-en-1-yl}benzyl)-oxy]propionic acid], at human PPARα, the “PPARα-agonistic activity (10 μM)” value amounted to 11.6. At human PPARγ, the “PPARγ-agonistic activity (10 μM)” value is recorded as 5.4.

Turning to `Cc1ccc(C(=O)c2cccn2C/C=C/c2ccc(CO[C@H](C)C(=O)O)cc2)cc1` [Example 6B, (2R)-2-[(4-{(1E)-3-[2-(4-Methylbenzoyl)-1H-pyrrol-1-yl]prop-1-ene-1-yl}benzyl)-oxy]propionic acid], the “PPARα-agonistic activity (10 μM)” value at human PPARα came out at 10.1. The “PPARγ-agonistic activity (10 μM)” value at human PPARγ amounted to 5.5. For the same compound, the “Hypoglycemic Activity (%)” value with male db/db mice was 63.3%.

In the case of `Cc1ccc(C(=O)c2cccn2C/C=C/c2cccc(CO[C@@H](C)C(=O)O)c2)cc1` [Example 7B, (2S)-2-[(3-{(1E)-3-[2-(4-Methylbenzoyl)-1H-pyrrol-1-yl]prop-1-en-1-yl}benzyl)-oxy]propionic acid], the “PPARα-agonistic activity (10 μM)” value at human PPARα is recorded as 10.8. At human PPARγ, the “PPARγ-agonistic activity (10 μM)” value is 2.9.

For the compound `CCC(OCc1cccc(/C=C/Cn2cccc2C(=O)c2ccc(C)cc2)c1)C(=O)O` (stereo not shown) [Example 9B, 2-[(3-{(1E)-3-[2-(4-methylbenzoyl)-1H-pyrrol-1-yl]prop-1-en-1-yl}benzyl)oxy]-butyric acid], the “PPARα-agonistic activity (10 μM)” value at human PPARα is recorded as 8.6. In addition, the “PPARγ-agonistic activity (10 μM)” value at human PPARγ came to 5.3.

Regarding `Cc1ccc(C(=O)c2cccn2C/C=C/c2ccc(CO[C@@H](C)C(=O)O)cc2)cc1` [Example 11, (2S)-2-[(4-{(1E)-3-[2-(4-Methylbenzoyl)-1H-pyrrol-1-yl]prop-1-en-1-yl}benzyl)-oxy]propionic acid 1,3-dihydroxy-2-(hydroxymethyl)propan-2-aminium salt], the “Hypoglycemic Activity (%)” value in the assay on male db/db mice was found to be 64.4%.

Regarding `Cc1ccc(C(=O)c2nccn2C/C=C/c2ccc(CO[C@H](C)C(=O)O)cc2)cc1` [Example 27], the “Hypoglycemic Activity (%)” value in the assay with male db/db mice was determined as 51.0%.

Consider `COc1ccc(C(=O)c2nccn2C/C=C/c2ccc(CO[C@H](C)C(=O)O)cc2)cc1` [Example 29], for which, in the assay on male db/db mice, the “Hypoglycemic Activity (%)” value was 43.0%.

In the case of `Cc1ccc(C(=O)c2nc3ccccc3n2C/C=C/c2ccc(COC(C)(C)C(=O)O)cc2)cc1` [Example 38], in the assay on male db/db mice, the “Hypoglycemic Activity (%)” value is given as 18.2%.

As for `Cc1ccc(C(=O)c2cccn2C/C=C/c2ccc(COCc3nnn[nH]3)cc2)cc1` [compound 51], the “PPARα-agonistic activity (10 μM)” value at human PPARα amounted to 17.7. On human PPARγ, the “PPARγ-agonistic activity (10 μM)” value came to 8.9.
